According to PMC12751012, “Nanoscale Direct-to-Biology Optimization and Structural Insights into Selective S. aureus TrmD Inhibitors” (Journal of Medicinal Chemistry, 2025):

Legend:
[1] = system: S. aureus RN4220 lysate; test: Bacterial lysate carbamate cleavage assay (LC/MS); type: in vitro ADME, Staphylococcus aureus; details: 400 μM, 16 h; for cleavage in S. aureus lysate: LC/MS; for degree of carbamate cleavage to 8h: S. aureus lysate
Description: An overnight culture of S. aureus RN4220 was set up in TSB medium (BD Bacto Tryptic Soy Broth). The next day, a 150 mL day culture was started at an initial OD600 of 0.1. The culture was incubated at 200 rpm shaking at 37 °C. The bacteria were harvested after 3 h and 40 min (OD600 = 3.30). A 1 mL aliquot was retained to determine cell number. 150 mL of the culture was centrifuged at 4000 rpm for 10 min at 4 °C. The resulting pellet was resuspended in 10 mL of JB Lysis Buffer (0.1% Triton X-100, 20 mM Tris-HCl, 150 mM KCl, 1 mM MgCl2, 1 mM DTT, and protease inhibitors) and transferred to FastPrep tubes. Cells were mechanically lysed (2 × 30 s, 6.5 m/s) and cooled for 5 min on ice. The samples were centrifuged, and the supernatant was transferred to a new tube. Subsequently, it was centrifuged again at 5000 rpm for 30 min at 4 °C. The pellet was washed three times with 1× PBS, reducing the volume to 1 mL. Protein concentration was determined using the Pierce BCA Protein Assay Kit (Thermo Scientific). The final sample was frozen in liquid nitrogen and stored at −80 °C. 100 μL of this lysate was incubated with 8f–h (final concentration 400 μM, 2% DMSO) for 16 h at 30 °C. Afterward, 100 μL acetonitrile was added, and the samples were passed through a syringe filter. Ten μL of the samples were injected during LC/MS (Agilent 1100 system, LC/MSD trap) using an Agilent Poroshell 120 EC-C18 150 × 2.10 mm 4 μm column; mobile phase (gradient: acetonitrile/H2O, 0.1% formic acid). The LC/MS chromatograms and their corresponding mass spectra (base-peak) were analyzed using MestReNova (12.0.4) for prodrug deprotection products.

[2] = system: S. aureus RN4220; test: Minimal bactericidal concentration (MBC) determination, CFU/mL; type: cell-based, Staphylococcus aureus; details: 24 h static incubation
Description: To determine the minimal bactericidal concentration of the substances, bacterial cultures were prepared as in the bacterial growth inhibition assay but incubated statically at 37 °C. A serial dilution of the initial culture was made and plated on a TSB agar plate to determine the CFU/mL of the original culture. After 24 h, the cultures were diluted again and plated. Bacterial colonies were counted, and the CFU/mL was calculated. The experiment was performed in n = 3 biological replicates. Data evaluation was done using GraphPad Prism. One-way ANOVA with Dunnett’s multiple comparisons test was used for statistical analysis, and all samples were compared to the starting CFU/mL.

SMILES | cleavage in S. aureus lysate [1] | degree of carbamate cleavage to 8h [1] [%] | effect on CFU/mL after 24 h (MBC determination) [2] | concentration from which growth (CFU/mL) is affected [2] [µM]
CC(C)(C)OC(=O)/N=C(\NCCn1cc(-c2c[nH]c3nc[nH]c(=O)c23)nn1)NC(=O)OC(C)(C)C [Compound 8g] | readily cleaved | ~30 | cell growth is not negatively affected | 
O=C(/N=C(\NCCn1cc(-c2c[nH]c3nc[nH]c(=O)c23)nn1)NC(=O)OCc1ccccc1)OCc1ccccc1 [Compound 8f] | readily cleaved | ~30 | bacteria were not killed completely | 12.5
